Reference: ChEMBL document CHEMBL5614408, “Indole-core inhibitors of influenza a neuraminidase: iterative medicinal chemistry and molecular modeling” (Eur J Med Chem, 2024)
Activity calls are given as the source filed them. The rule behind the calls is not given here.

How the values were obtained:
[1] = biological target: Neuraminidase (Influenza A virus (A/Puerto Rico/8/1934(H1N1)), UniProt P03468); assay: Inhibition of Influenza A virus A/Puerto Rico/8/34 (H1N1) neuraminidase assessed as reduction in neuraminidase activity by chemiluminescence based assay
MDCK = assay: (§1) Cytotoxicity against MDCK cells assessed as inhibition of cell growth incubated for 48 hrs by MTS assay; assay type: toxicity, cell-based, Canis lupus familiaris; conditions: dog, mdck, 48 h
Influenza A virus [2] = assay: Antiviral activity against Influenza A virus A/Puerto Rico/8/34 (H1N1) infected in MDCK cells assessed as inhibition of viral infection preincubated with cells for 1 hrs followed by viral infection and measured after 48 hrs by hemagglutination assay; assay type: functional, organism-based
[3] = Selectivity index, ratio of CC50 for cytotoxicity against MDCK cells to IC50 for antiviral activity against Influenza A virus A/Puerto Rico/8/34 (H1N1) infected in MDCK cells; assay type: toxicity, cell-based; conditions: dog, read-out: Ratio CC50/IC50
Influenza A virus [4] = assay: Antiviral activity against influenza A virus A/California/04/2009 (H1N1) infected in female BALB/c mouse model assessed as inhibition of viral replication in lungs at 50 mg/kg, po pretreated for 4 hrs followed by twice daily compound administration 4 hrs post viral infection and measured on day 4 post infection; assay type: functional, organism-based; conditions: time 4.0 day
Influenza A virus [5] = assay: (§2) Antiviral activity against influenza A virus A/California/04/2009 (H1N1) infected in female BALB/c mouse model assessed as survival rate at 50 mg/kg, po pretreated for 4 hrs followed by twice daily compound administration 4 hrs post viral infection and measured on day 11 post infection relative to control; assay type: functional; conditions: 264 h, time 11 day
Influenza A virus [6] = assay: as §2, with “reduction in body weight loss” for “survival rate”, “20” for “50”, “infection” for “infection relative to control”; assay type: functional, organism-based; conditions: time 11.0 day
[7] = as §1; assay type: toxicity, cell-based, Canis lupus familiaris; conditions: dog, MDCK cells
Influenza A virus [8] = assay: as §2, with “20” for “50”; assay type: functional; conditions: 264 h, time 11 day

Chain of Neuraminidase (Influenza A virus (A/Puerto Rico/8/1934(H1N1)), UniProt P03468) (P03468 whole entry): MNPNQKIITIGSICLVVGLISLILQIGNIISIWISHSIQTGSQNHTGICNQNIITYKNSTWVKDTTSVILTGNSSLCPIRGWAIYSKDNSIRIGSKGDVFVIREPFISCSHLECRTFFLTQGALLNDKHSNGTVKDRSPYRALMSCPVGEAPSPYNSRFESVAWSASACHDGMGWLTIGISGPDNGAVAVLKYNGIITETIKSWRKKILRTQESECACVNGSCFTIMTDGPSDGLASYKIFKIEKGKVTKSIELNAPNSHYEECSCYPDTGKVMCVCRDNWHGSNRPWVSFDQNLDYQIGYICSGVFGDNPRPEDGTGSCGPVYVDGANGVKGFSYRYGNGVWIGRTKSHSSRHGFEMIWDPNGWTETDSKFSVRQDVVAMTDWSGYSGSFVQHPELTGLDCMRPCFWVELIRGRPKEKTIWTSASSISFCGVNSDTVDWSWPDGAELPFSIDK

Row | Structure (SMILES) | IC50 [1] [µM] | further results
1 | CC(=O)N1/C(=C/Nc2ccccn2)C(=O)c2ccccc21 | 1.19 | –
2 | CCCCOc1ccc(N/C=C2\C(=O)c3ccccc3N2C(C)=O)cc1 | 0.42 | –
3 | CC(=O)N1/C(=C/Nc2cccc(Cc3ccccc3)c2)C(=O)c2ccccc21 | 0.2 | –
4 | CC(=O)N1/C(=C/Nc2ccc(C(F)(F)F)cc2)C(=O)c2ccccc21 | 0.77 | –
5 | O=C1/C(=C\Nc2ccccc2)Nc2ccccc21 | 5.36 | –
6 | CCOC(=O)c1cccc(N/C=C2\C(=O)c3cccnc3N2C(C)=O)c1 | 9.84 | –
7 | CCC(=O)N1/C(=C/Nc2cccc(F)c2)C(=O)c2ccccc21 | 0.23 | CC50 (MDCK): 95 µM; IC50 (Influenza A virus [2]): 11.3 µM; selectivity ratio [3]: 8
8 | COc1cccc(N/C=C2\C(=O)c3ccccc3N2C(C)=O)c1 | 0.37 | –
9 | CC(=O)N1/C(=C/Nc2cccc(F)c2)C(=O)c2ccccc21 | 0.03 | Activity (Influenza A virus [4]): Active; CC50 (MDCK): 1480 µM; IC50 (Influenza A virus [2]): 33.8 µM; selectivity ratio [3]: 44; survival at 50 mg/kg (Influenza A virus [5]): 30%; Activity (Influenza A virus [6]): Active
10 | CC(=O)N1/C(=C/Nc2cccc(S(N)(=O)=O)c2)C(=O)c2ccccc21 | 0.64 | –
11 | CC(=O)N1/C(=C/NCc2ccc(F)c(F)c2)C(=O)c2ccccc21 | 11.1 | –
12 | CCC(=O)N1/C(=C/Nc2ccc(OC)cc2)C(=O)c2ccccc21 | 0.73 | –
13 | CC(=O)N1/C(=C/Nc2ccc(Cc3ccccc3)cc2)C(=O)c2ccccc21 | 0.1 | CC50 (MDCK): 1740 µM; IC50 (Influenza A virus [2]): 111 µM; selectivity ratio [3]: 16
14 | O=C1/C(=C\NCc2ccccc2)Nc2ccccc21 | 12.9 | –
15 | COc1ccc(N/C=C2\C(=O)c3cc(OC)ccc3N2C(C)=O)cc1 | 1.7 | –
16 | CC(=O)N1/C(=C/Nc2ccc(Nc3ccccc3)cc2)C(=O)c2ccccc21 | 0.76 | –
17 | CCOC(=O)c1cccc(N/C=C2\C(=O)c3cc(OC)ccc3N2C(C)=O)c1 | 1.33 | –
18 | O=C1/C(=C\Nc2ccc(Cl)cc2)Nc2ccccc21 | 1.85 | –
19 | CC(=O)N1/C(=C/Nc2ccncc2)C(=O)c2ccccc21 | 1.08 | –
20 | CC(=O)N1/C(=C/Nc2ccc(F)cc2)C(=O)c2ccccc21 | 0.34 | –
21 | CCOC(=O)c1cccc(N/C=C2\C(=O)c3ccccc3N2C(C)=O)c1 | 0.28 | –
22 | COc1ccccc1N/C=C1\C(=O)c2ccccc2N1C(C)=O | 1.08 | –
23 | CC(=O)N1/C(=C/Nc2cccc(Oc3ccccc3)c2)C(=O)c2cccnc21 | – | CC50 at 48 h [7]: 540 µM; IC50 (Influenza A virus [2]): 120 µM; selectivity ratio [3]: 5
24 | COc1ccc(N/C=C2\C(=O)c3cc(Cl)ccc3N2C(C)=O)cc1 | 5.43 | –

Row | Structure (SMILES) | IC50 [1] [µM] | further results
25 | CC(=O)N1/C(=C/Nc2cccc(F)c2)C(=O)c2cccnc21 | 1.42 | –
26 | CCOC(=O)c1cccc(N/C=C2\C(=O)c3cc(Cl)ccc3N2C(C)=O)c1 | 2.03 | –
27 | CC(=O)N1/C(=C/Nc2cc(F)cc(F)c2)C(=O)c2ccccc21 | 0.53 | –
28 | CC(=O)N1/C(=C/Nc2cccc(Oc3ccccc3)c2)C(=O)c2ccccc21 | 0.5 | –
29 | COc1ccc(N/C=C2\C(=O)c3ccccc3N2C)cc1 | 1 | –
30 | COc1cc(N/C=C2\C(=O)c3ccccc3N2C(C)=O)cc(OC)c1OC | 2.71 | –
31 | CC(=O)N1/C(=C/Nc2ccccc2)C(=O)c2ccccc21 | 0.37 | –
32 | CCC(=O)N1/C(=C/Nc2ccc(F)c(F)c2)C(=O)c2ccccc21 | 0.3 | –
33 | COc1ccc(OC)c(N/C=C2\C(=O)c3ccccc3N2C(C)=O)c1 | 0.99 | –
34 | CCC(=O)N1/C(=C/Nc2ccc(F)cc2)C(=O)c2ccccc21 | 0.43 | –
35 | CC(=O)N1/C(=C/Nc2cccc(C(F)(F)F)c2)C(=O)c2ccccc21 | 0.96 | –
36 | CC(=O)N1/C(=C/Nc2cccc(OC(F)(F)F)c2)C(=O)c2ccccc21 | 0.2 | Activity (Influenza A virus [4]): Active; CC50 (MDCK): 105 µM; IC50 (Influenza A virus [2]): 3 µM; selectivity ratio [3]: 35; survival at 50 mg/kg (Influenza A virus [5]): 30%; Activity (Influenza A virus [6]): Active
37 | CC(=O)N1/C(=C/Nc2cccc(F)c2F)C(=O)c2ccccc21 | 0.95 | –
38 | COc1ccc(N/C=C2\C(=O)c3ccccc3N2C(C)=O)cc1OC | 25.2 | –
39 | CC(=O)N1/C(=C/Nc2ccc(F)c(F)c2)C(=O)c2ccccc21 | 0.47 | –
40 | CCOC(=O)C1=C[C@@H](OC(CC)CC)[C@H](NC(C)=O)[C@@H](N)C1 [OSELTAMIVIR] | – | survival at 20 mg/kg (Influenza A virus [8]): 50%
41 | CC(=O)N1/C(=C/Nc2cc(F)c(F)c(F)c2)C(=O)c2ccccc21 | 1 | –
42 | CC(=O)N1/C(=C/Nc2ccc(Cl)cc2)C(=O)c2ccccc21 | 1.39 | –
43 | CC(=O)N1/C(=C/Nc2ccc(OC(F)(F)F)cc2)C(=O)c2ccccc21 | 5.13 | –
44 | CCOc1ccc(N/C=C2\C(=O)c3ccccc3N2C(C)=O)cc1 | 0.62 | –
45 | COc1ccc(N/C=C2\C(=O)c3ccccc3N2C(C)=O)cc1 | 0.1 | CC50 (MDCK): 1810 µM; IC50 (Influenza A virus [2]): 12 µM; selectivity ratio [3]: 151
46 | COc1ccc(N/C=C2\C(=O)c3cccnc3N2C(C)=O)cc1 | 2 | –
47 | COc1ccc(N/C=C2/Nc3ccccc3C2=O)cc1 | 3.01 | –
48 | CC(=O)N1/C(=C/Nc2ccccc2C(F)(F)F)C(=O)c2ccccc21 | 0.58 | –
